Among the data in patent US10421718B2, “EBNA1 inhibitors and their method of use” (priority 2013, dated 2019) are IC50 values, retold here.

Molecules are shown by their SMILES. Where a name gives a salt, the structure may show the parent alone.

The target of this experiment is T1, His-EBNA1 (DNA binding domain of EBNA1, amino acids 459-607) (Epstein-Barr virus, UniProt P03211).
T1 construct: made in house; host or cells: E. coli
T1 sequence (P03211 459-607): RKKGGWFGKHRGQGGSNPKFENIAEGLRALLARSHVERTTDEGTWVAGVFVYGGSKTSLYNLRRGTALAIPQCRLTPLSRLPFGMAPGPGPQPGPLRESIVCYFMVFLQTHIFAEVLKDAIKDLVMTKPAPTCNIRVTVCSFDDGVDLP
The experiment can be described thus: Inhibition of 5′-biotin-oPL4624 binding to His-EBNA1 using Alpha Screen technology. Conditions: Alpha Screen Activity (IC50, inhibition of 5′-biotin-oPL4624 binding to His-EBNA1), 15 nM His-EBNA1, 0.2 nM bt-oPL4624, 2 hr room temperature. The essentials:
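His-tagged EBNA1 DNA-binding domain (aa 459-607, E. coli-expressed) at 15 nM with 0.2 nM biotinylated self-complementary oligo, streptavidin donor and nickel acceptor beads, in 25 mM Tris pH 7.2, 160 mM NaCl, 1 mM MgCl2. Compound 3.2 nM-100 μM final; AlphaScreen read after 2 h at room temperature, one-site dose-response fit.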
As for `O=C(O)c1cccc(C#Cc2ccccc2)c1-n1cc(CCCO)nn1` [Entry 112, 2-(4-(3-hydroxypropyl)-1H-1,2,3-triazol-1-yl)-3-(phenylethynyl)benzoic acid], the IC50 lay within 10 to 100 µM.
`O=C(O)c1cccc(C#Cc2ccccc2)c1-c1ccc(CO)cc1` [Entry 130, 2-[4-(hydroxymethyl)phenyl]-3-(2-phenylethynyl)benzoic acid] displayed an IC50 of 10 to 100 µM.
As to `O=C(O)c1cccc(C#Cc2cnc3ccccn23)c1-n1cccc1` [Entry 12, 3-(2-{imidazo[1,2-a]pyridin-3-yl}ethynyl)-2-(1H-pyrrol-1-yl)benzoic acid], the IC50 was < 1 µM.
`CS(=O)(=O)c1ccc(-c2c(C#Cc3ccccc3)cccc2C(=O)O)cc1` [Entry 98, 2-(4-methanesulfonylphenyl)-3-(2-phenylethynyl)benzoic acid] registered an IC50 of 10 to 100 µM.
For the compound `O=C(O)c1cccc(C#Cc2ccccc2)c1-n1cnc2ccccc21` [Entry 297, 2-benzoimidazol-1-yl-3-phenylethynyl-benzoic acid], the IC50 was 10 to 100 µM.
As for `O=C(O)c1cccc(C#Cc2cccnc2)c1-n1cccc1` [Entry 69, 3-[2-(pyridin-3-yl)ethynyl]-2-(1H-pyrrol-1-yl)benzoic acid], the figure is 10 to 100 µM; as for `O=C(O)c1cncc(C#Cc2ccccc2)c1-n1cccc1` [Entry 52, 5-(2-phenylethynyl)-4-(1H-pyrrol-1-yl)pyridine-3-carboxylic acid], 10 to 100 µM.
`COc1ccc(-c2c(C#Cc3ccccc3)cccc2C(=O)O)cc1` [Entry 119, 2-(4-methoxyphenyl)-3-(2-phenylethynyl)benzoic acid] registered an IC50 of 1 to 10 µM.
`O=C(O)c1cccc(C#Cc2ccccc2)c1OCc1ccccc1` [Entry 155, 2-(benzyloxy)-3-(2-phenylethynyl)benzoic acid] registered a concentration for half-maximal inhibition (IC50) of 10 to 100 µM.
Compound `Cc1ccc(-c2c(C#Cc3cccc(O)c3)cccc2C(=O)O)cc1` [Entry 261, 3-[2-(3-hydroxyphenyl)ethynyl]-2-(4-methylphenyl)benzoic acid] registered an IC50 of 10 to 100 µM.
`COc1cc(OC)cc(-c2c(C#Cc3cccc(O)c3)cccc2C(=O)O)c1` [Entry 277, 2-(3,5-dimethoxyphenyl)-3-[2-(3-hydroxyphenyl)ethynyl]benzoic acid] displayed a half-inhibitory concentration (IC50) of 10 to 100 µM.
As to `O=C(O)c1cccc(C#Cc2ccncc2)c1-n1cncn1` [Entry 293, 3-pyridin-4-ylethynyl-2-[1,2,4]triazol-1-yl-benzoic acid], the IC50 lay within 10 to 100 µM.
As for `CN(C)S(=O)(=O)c1cccc(C#Cc2cccc(C(=O)O)c2F)c1` [Entry 224], the figure is 10 to 100 µM.
For `CN(C)C(=O)c1cccc(C#Cc2cccc(C(=O)O)c2)c1` [Entry 288, 3-(3-dimethylcarbamoyl-phenylethynyl)-benzoic acid], the IC50 was 100 to 1000 µM.
Compound `CC(=O)Nc1cccc(C#Cc2cccc(C(=O)O)c2-n2c(C)ccc2C)c1` [Entry 198, 3-(3-acetylamino-phenylethynyl)-2-(2,5-dimethyl-pyrrol-1-yl)-benzoic acid] displayed an IC50 of 10 to 100 µM.
`O=C(NS(=O)(=O)N1CCS(=O)(=O)CC1)c1cccc(C#Cc2ccccc2)c1-n1cccc1` [Entry 116]: the half-inhibitory concentration (IC50) is 10 to 100 µM.
In the case of `O=C(O)c1cccc(C#Cc2ccncc2)c1-c1cc[nH]n1` [Entry 187, 2-(1H-pyrazol-3-yl)-3-pyridin-4-ylethynyl-benzoic acid], the half-inhibitory concentration (IC50) lay within 10 to 100 µM.
The result for `O=C(O)c1cccc(C#Cc2cccc(O)c2)c1-c1cccc(O)c1` [Entry 269, 2-(3-hydroxyphenyl)-3-[2-(3-hydroxyphenyl)ethynyl]benzoic acid] reads 10 to 100 µM; that for `O=C(O)c1cccc(C#Cc2ccccc2)c1-c1cccc2cccnc12` [Entry 205, 3-phenylethynyl-2-quinolin-8-yl-benzoic acid], 10 to 100 µM.
`O=C(O)c1cccc(C#CC(O)c2ccc(F)cc2)c1-c1cccc(O)c1` (stereo not shown) [Entry 274, 3-[3-(4-fluorophenyl)-3-hydroxyprop-1-yn-1-yl]-2-(3-hydroxyphenyl)benzoic acid] returned an IC50 of 1 to 10 µM.
In turn, `Cc1ccc(C)n1-c1c(C#CC2CC2)cccc1C(=O)O` [Entry 199, 3-cyclopropylethynyl-2-(2,5-dimethyl-pyrrol-1-yl)-benzoic acid] had an IC50 of 1 to 10 µM.
As for `O=C(O)c1cccc(C#Cc2cccc(CNS(=O)(=O)c3cc(F)cc(F)c3)c2)c1-n1cccc1` [Entry 163, 3-{2-[3-(3,5-difluorobenzenesulfonamidomethyl)phenyl]ethynyl}-2-(1H-pyrrol-1-yl)benzoic acid], the figure is 1 to 10 µM.
`O=C(O)c1cccc(C#Cc2cccc(O)c2)c1-c1cnc2ccccc2c1` [Entry 140, 3-((3-hydroxyphenyl)ethynyl)-2-(quinolin-3-yl)benzoic acid] showed a half-maximal inhibitory concentration (IC50) of 1 to 10 µM.
As for `CCOC(=O)c1cc2ccc(-c3c(C#Cc4ccccc4)cccc3C(=O)O)cc2[nH]1` [Entry 251, 2-(2-(ethoxycarbonyl)-1H-indol-6-yl)-3-(phenylethynyl)benzoic acid], the figure is 1 to 10 µM; as for `NS(=O)(=O)NC(=O)c1cccc(C#Cc2ccccc2)c1-n1cccc1` [Entry 118, 3-(phenylethynyl)-2-(1H-pyrrol-1-yl)-N-sulfamoylbenzamide], 10 to 100 µM; as for `O=C(O)c1cccc(C#Cc2ccccc2)c1-c1ccc2cnccc2c1` [Entry 203, 2-isoquinolin-6-yl-3-phenylethynyl-benzoic acid], 10 to 100 µM.
Regarding `CC1(C)CN(c2cccc(C#Cc3cccc(C(=O)O)c3-n3cccc3)c2)C1=O` [Entry 9, 3-{2-[3-(3,3-dimethyl-2-oxoazetidin-1-yl)phenyl]ethynyl}-2-(1H-pyrrol-1-yl)benzoic acid], the IC50 was < 1 µM.
As to `O=C(O)c1cccc(C#Cc2ccncc2)c1-c1cn[nH]c1` [Entry 188, 2-(1H-pyrazol-4-yl)-3-pyridin-4-ylethynyl-benzoic acid], the IC50 fell in the range of 100 to 1000 µM.
Consider `O=C(O)c1cccc(CCc2ccc(F)cc2)c1-n1cccc1` [Entry 149, 3-[2-(4-fluorophenyl)ethyl]-2-(1H-pyrrol-1-yl)benzoic acid], for which the half-inhibitory concentration (IC50) was 10 to 100 µM.
As for `O=C(O)c1cccc(C#Cc2cc(C(=O)O)c3cc[nH]c3c2)c1` [Entry 178, 6-(3-carboxy-phenylethynyl)-1H-indole-4-carboxylic acid], the figure is 1 to 10 µM; as for `COc1cccc(-c2c(C#Cc3ccccc3)cccc2C(=O)O)c1` [Entry 120, 2-(3-methoxyphenyl)-3-(2-phenylethynyl)benzoic acid], 1 to 10 µM; as for `O=C(O)c1cccc(C#Cc2cccc(C(=O)N3CCN(c4ccccc4)CC3)c2)c1` [Entry 290, 3-[3-(4-phenyl-piperazine-1-carbonyl)-phenylethynyl]-benzoic acid], 10 to 100 µM.
Take `Cn1ccc2c(C#Cc3cccc(C(=O)O)c3-n3cccc3)cccc21` [Entry 15, 3-[2-(1-methyl-1H-indol-4-yl)ethynyl]-2-(1H-pyrrol-1-yl)benzoic acid]: the IC50 was < 1 µM.
Compound `O=C(O)c1cccc(C#Cc2ccccc2)c1-c1ccc2nc[nH]c2c1` [Entry 150, 2-(1H-1,3-benzodiazol-6-yl)-3-(2-phenylethynyl)benzoic acid] yielded an IC50 of 10 to 100 µM.
For the compound `CC(C)(N)C#Cc1cccc(C(=O)O)c1-c1ccc2cc[nH]c2c1` [Entry 246, 3-(3-amino-3-methylbut-1-ynyl)-2-(1H-indol-6-yl)benzoic acid], the IC50 is 1 to 10 µM.
As to `O=C(O)c1cccc(C#Cc2cccc(O)c2)c1-n1cccc1` [Entry 57, 3-[2-(3-hydroxyphenyl)ethynyl]-2-(1H-pyrrol-1-yl)benzoic acid], the half-inhibitory concentration (IC50) is < 1 µM.
The compound `O=C(O)c1cccc(C#Cc2ccnc(O)c2)c1-n1cccc1` [Entry 7, 3-[2-(2-hydroxypyridin-4-yl)ethynyl]-2-(1H-pyrrol-1-yl)benzoic acid] had an IC50 of 10 to 100 µM.
`COC(=O)c1c[nH]c2cc(-c3c(C#Cc4ccccc4)cccc3C(=O)O)ccc12` [Entry 156, 2-[3-(methoxycarbonyl)-1H-indol-6-yl]-3-(2-phenylethynyl)benzoic acid] had an IC50 of 1 to 10 µM.
For the compound `O=C(O)c1cccc(C#Cc2cncs2)c1-n1cccc1` [Entry 28, 2-(1H-pyrrol-1-yl)-3-[2-(1,3-thiazol-5-yl)ethynyl]benzoic acid], the concentration for half-maximal inhibition (IC50) is 10 to 100 µM.
Consider `O=C(O)c1cccc(C#Cc2ccc3c(c2)NCC3)c1-n1cccc1` [Entry 23, 3-[2-(2,3-dihydro-1H-indol-6-yl)ethynyl]-2-(1H-pyrrol-1-yl)benzoic acid], for which the IC50 is < 1 µM.
`O=C(O)c1cc(Cl)cc(C#Cc2ccccc2)c1-n1cccc1` [Entry 59, 5-chloro-3-(2-phenylethynyl)-2-(1H-pyrrol-1-yl)benzoic acid] showed a 50% inhibitory concentration (IC50) of 10 to 100 µM.
Take `O=C(O)c1cccc(C#Cc2cccnc2)c1` [Entry 91, 3-[2-(pyridin-3-yl)ethynyl]benzoic acid]: the IC50 was 1 to 10 µM.
`O=C(O)c1cccc(C#CCNc2ccc3[nH]cnc3c2)c1-c1ccccc1` [Entry 262, 3-{3-[(1H-1,3-benzodiazol-6-yl)amino]prop-1-yn-1-yl}-2-phenylbenzoic acid; trifluoroacetate salt] showed an IC50 of 1 to 10 µM.
Regarding `CC(C)(N)C#Cc1cccc(C(=O)O)c1-n1cccc1` [Entry 48, 3-(3-amino-3-methylbut-1-yn-1-yl)-2-(1H-pyrrol-1-yl)benzoic acid], the IC50 was 100 to 1000 µM.
Take `NC(=O)c1cccc(C#Cc2cccc(C(=O)O)c2-c2ccc3cc[nH]c3c2)c1` [Entry 227, 3-((3-carbamoylphenyl)ethynyl)-2-(1H-indol-6-yl)benzoic acid]: the IC50 lay within 10 to 100 µM.
For the compound `O=C(O)c1cccc(C#CCO)c1-c1ccccc1` [Entry 161, 3-(3-hydroxyprop-1-yn-1-yl)-2-phenylbenzoic acid], the IC50 fell in the range of 100 to 1000 µM.
